The target of the assay is T1, streptavidin (Streptomyces avidinii, UniProt P22629).
T1 construct: purchased Molecular Probes (Eugene, Oreg.)
Put plainly: dissociation of SA-1 peptide grafted into YFP from streptavidin coated beads, flow cytometry. The class given is binding. The note with it: SA-1 inserted into YFP after Y145, soluble fusion protein, 1 μM biotin. Here is the method:
See Baird, G. S. et al. (1999) PNAS USA 96(20):11241-11246, which is herein incorporated by reference. […] See Bessette, P. H., et al. (1999) PNAS USA 96(24):13703-13708, which is herein incorporated by reference. […] Using flow cytometry, the dissociation rate constant of the steptavidin binding fluorescent protein was determined to be 0.02 s^−1.
The soluble protein was isolated using B-PER II bacterial protein extraction reagent (Pierce Biotechnology, Rockford, Ill.) following the manufacturer's protocol. About 10^7 streptavidin coated magnetic beads (Dynal Inc., Brown Deer, Wis.) were added to 40 μl of cell lysate and equilibrated at room temperature for 20 minutes. The beads were washed once in 2 ml of PBS; biotin was added to a final concentration of 1 μM, and immediately analyzed by flow cytometry as above. Lysate from a strain expressing YFP with a T7•tag insertion at the same location was used as a negative control.
Background: In flow cytometry, cells or beads pass a laser one at a time.

Consider 1 sequence from patent US9134309B2, “Polypeptide display libraries and methods of making and using thereof” (The Regents of the University of California, priority 2003, dated 2015).

T1 sequence (P22629 25-183): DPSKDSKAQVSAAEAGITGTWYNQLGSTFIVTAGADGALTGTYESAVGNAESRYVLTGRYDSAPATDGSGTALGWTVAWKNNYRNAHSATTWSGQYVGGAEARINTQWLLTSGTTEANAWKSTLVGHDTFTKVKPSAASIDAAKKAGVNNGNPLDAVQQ

Take RLEICQNVCYYLGTL [SA-1]: the dissociation rate constant is 0.02 s⁻¹.
